Assay results from patent publication US4486445A, “Justicidin insecticidal and antiviral compounds” (E. I. Du Pont de Nemours and Company, priority 1983, dated 1984).
Converted amounts (≈) assume the structure as drawn. Read-outs that look alike come from different tables or passages of the source.

How the values were obtained:
fish = settings: in vivo, cited from earlier work
[1] = test system: mosquito larvae of the species Culex pipiens pallens; settings: mixtures with pyrethrin or allethrin; cited from earlier work
Aedes egypti larvae = test: insecticidal activity against larvae of A. egypti in water; format: in vivo; settings: larvae of A. egypti in H2O; for LC50: Aedes, read-out: EC50 (effective kill concentration for 50% of the experimental larvae)
Method: The insecticidal activity of the crude acetone/water extracts of Justicia extensa, prepared according to the isolation procedure described previously, was tested against laboratory cultures of the mosquito species Aedes egypti (Linnaeus) and southern army worm (SAW) Spodoptera eridania (Cramer). Extracts of leaves, branches and roots were employed in each test.
In tests against larvae of A. egypti, 10 mg of the crude plant extract was thoroughly dispersed in 20 ml of water in a test tube to which 10 first instar larvae were added.

[2] = test system: Human Rhino Virus (HRV-2); test: inhibition of HRV-2 in HeLa cells; format: cell-based, Human rhinovirus HRV-2; settings: Rhinovirus A; for inhibition at 0.016 µg/mL: HRV2, 0.016 μg/ml; for inhibition at 0.08 µg/mL: HRV2, 0.08 μg/ml; for inhibition at 0.4 µg/mL: HRV2, 0.4 μg/ml; for inhibition at 2 µg/mL: HRV2, 2 μg/ml; for inhibition at 10 µg/mL: HRV2, 10 μg/ml
HeLa cells = format: cell-based
A/JAX inbred mice = test: in vivo oral toxicity in A/JAX inbred mice; settings: orally, 200 and 100 mg/kg
Method: In vivo toxicity studies of natural and synthetic Justicidin P produced mixed results. […] However, natural and synthetic Justicidin P were toxic to A/JAX inbred mice when administered orally at dosages of 200 and 100 mg/kg.

[3] = test system: Herpes Type 2-Alabama strain; test: plaque formation inhibition, Herpes Type 2 in HeLa cells; format: cell-based; settings: for antiviral activity against Herpes Type 2: HeLa cells
Herpes Type 1-strain VR3 = test: plaque formation inhibition, Herpes Type 1 in HeLa cells; format: cell-based; settings: for antiviral activity against Herpes Type 1: HeLa cells
IMR-90 cells = settings: substantially similar test conditions

Row | Structure (SMILES) | LC50 (Aedes egypti larvae) [µg/mL] | inhibition at 0.016 µg/mL ([2]; 400 PFU) [%] | inhibition at 0.08 µg/mL ([2]; 400 PFU) [%] | inhibition at 0.4 µg/mL ([2]; 400 PFU) [%] | inhibition at 2 µg/mL ([2]; 400 PFU) [%] | inhibition at 10 µg/mL ([2]; 400 PFU) [%] | inhibition at 0.016 µg/mL ([2]; 200 PFU) [%] | inhibition at 0.08 µg/mL ([2]; 200 PFU) [%] | inhibition at 0.4 µg/mL ([2]; 200 PFU) [%] | also measured
1 | COc1cc2cc3c(c(-c4ccc5c(c4)OCO5)c2cc1OC)C(=O)OC3 [Justicidin B] |  |  |  |  |  |  |  |  |  | piscicidal activity (fish): extraordinary piscicidal activity; piscicidal activity (fish; listed as B): active piscicidal components; synergistic behavior [1]: synergistic behavior was observed
2 | COc1cc2c(OC)c3c(c(-c4ccc5c(c4)OCO5)c2cc1OC)C(=O)OC3 [Justicidin A, 9-(1,3-Benzodioxol-5-yl)-4,6,7-trimethoxynaphtho[2,3-c]furan-1(3H)-one] | 10 (≈ 25.4 µM) |  |  |  |  |  |  |  |  | piscicidal activity (fish): extraordinary piscicidal activity; piscicidal activity (fish; listed as justicidins A): active piscicidal components; synergistic behavior [1]: synergistic behavior was observed
3 | COc1cc2c(OC)c3c(c(-c4ccc5c(c4)OCO5)c2cc1OC)C(=O)OC3OC(C)=O (racemic) [Compound 15] | 1 (≈ 2.21 µM) | 0 | 0 | 0 | 0 | 72 |  |  |  | 
4 | COc1cc2c(OC)c3c(c(-c4ccc5c(c4)OCO5)c2cc1OC)C(=O)OC3OC(C)C (stereo not drawn) [Compound 19] | 0.7 (≈ 1.55 µM) |  |  |  |  |  | 100 | ≥ 100 | 107 | cytotoxicity (HeLa cells; 1, 4, 16 and 64 μg/ml): demonstrated cytotoxic properties; inhibition at 2 µg/mL ([2]; 200 PFU): 14%
5 | COc1cc2c(OC)c3c(c(-c4ccc5c(c4)OCO5)c2cc1OC)C(=O)OC3OC (racemic) [Justicidin P (synthetic), (±)-9-(1,3-Benzodioxol-5-yl)-3,4,6,7-tetramethoxynaphtho[2,3-c]furan-1(3H)-one] | 0.01 (≈ 0.0236 µM) | 0 | 0 | 0 | 73 | 43 |  |  |  | in vivo toxicity (A/JAX inbred mice): toxic
6 | Nc1nc2c(ncn2COCCO)c(=O)[nH]1 [acyclovir, 9-(2-hydroxy-ethoxymethyl)guanine, reference compound] |  | 0 | 0 | 0 | 0 | 0 |  |  |  | inhibition of Type 2 plaque formation ([3]; range between 0.5 μg/ml and 8 μg/ml, similar test conditions): 90-99%; inhibition at 8 µg/mL (Herpes Type 1-strain VR3; HeLa, 8 μg/ml, similar test conditions): 90%; sensitivity of IMR-90 cells (IMR-90 cells): sensitive
7 | COc1cc2c(OC)c3c(c(-c4ccc5c(c4)OCO5)c2cc1OC)C(=O)OC3O (racemic) [Compound 16, (±)-9-(1,3-Benzodioxol-5-yl)-3-hydroxy-4,6,7-trimethoxynaphtho[2,3-c]furan-1(3H)-one] | 10 (≈ 24.4 µM) | 0 | 0 | 0 | 0 | 98 |  |  |  | 
8 | COc1cc2c(OC)c3c(c(-c4ccc5c(c4)OCO5)c2cc1OC)C(=O)OC3F (racemic) [Compound 14, (±)-9-(1,3-Benzodioxol-5-yl)-3-fluoro-4,6,7-trimethoxynaphtho[2,3-c]furan-1(3H)-one] | 0.7 (≈ 1.7 µM) | 0 | 0 | 0 | 21 | 79 |  |  |  | 
9 | COc1cc2c(O)c3c(c(-c4ccc5c(c4)OCO5)c2cc1OC)C(=O)OC3 [Diphyllin, 9-(1,3-Benzodioxol-5-yl)-6,7-dimethoxy-4-hydroxynaphtho[2,3-c]furan-1(3H)-one, reference compound] |  |  |  |  |  |  |  |  |  | EC50 (effective kill concentration for 50% of the experimental larvae) (Aedes egypti larvae): not active
10 | CCCOC1OC(=O)c2c1c(OC)c1cc(OC)c(OC)cc1c2-c1ccc2c(c1)OCO2 (racemic) [Compound 17, (±)-9-(1,3-Benzodioxol-5-yl)-3-propoxy-4,6,7-trimethoxynaphtho[2,3-c]furan-1(3H)-one] | 0.8 (≈ 1.77 µM) |  |  |  |  |  | ≥ 100 | ≥ 100 | ≥ 100 | inhibition at 0.1 µg/mL ([3]; 0.1 μg/ml, HeLa, read-out: plaque formation inhibition against Type 2 (average)): 91%; antiviral activity against Herpes Type 2 [3]: demonstrated antiviral activity; cytotoxicity (HeLa cells; 1 μg/ml): cytotoxic; inhibition at 2 µg/mL ([2]; 200 PFU): ≥ 74%; inhibition at 0.1 µg/mL (Herpes Type 1-strain VR3; 0.1 μg/ml, HeLa, read-out: plaque formation inhibition against Type 1 (average)): 71%; antiviral activity against Herpes Type 1 (Herpes Type 1-strain VR3): demonstrated antiviral activity
11 | CCCCCCCCCCCCOC1OC(=O)c2c1c(OC)c1cc(OC)c(OC)cc1c2-c1ccc2c(c1)OCO2 (stereo not drawn) [Compound 20] |  |  |  |  |  |  | 0 | 0 | 10 | inhibition at 2 µg/mL ([2]; 200 PFU): 74%; inhibition at 10 µg/mL ([2]; 200 PFU): 83%
12 | CCCCCCCSC1OC(=O)c2c1c(OC)c1cc(OC)c(OC)cc1c2-c1ccc2c(c1)OCO2 (stereo not drawn) [Compound 18] |  |  |  |  |  |  | 80 | ≥ 100 | ≥ 100 | inhibition at 1 µg/mL ([3]; 1 μg/ml, HeLa, read-out: inhibition against Type 2): 16%; inhibition at 4 µg/mL ([3]; 4 μg/ml, HeLa, read-out: inhibition against Type 2): 77%; antiviral activity against Herpes Type 2 [3]: demonstrated antiviral activity; cytotoxicity (HeLa cells; 64 and 16 μg/ml): cytotoxic; inhibition at 1 µg/mL (Herpes Type 1-strain VR3; 1 μg/ml, HeLa, read-out: inhibition against Type 1): 17%; inhibition at 4 µg/mL (Herpes Type 1-strain VR3; 4 μg/ml, HeLa, read-out: inhibition against Type 1): 81%; antiviral activity against Herpes Type 1 (Herpes Type 1-strain VR3): demonstrated antiviral activity
